According to ChEMBL document CHEMBL4811309, “Design, synthesis and antiproliferative activity of novel 2,4-diamino-5-methyleneaminopyrimidine derivatives as potential anticancer agents” (Bioorg Med Chem Lett, 2021):

Experiments:
Format in all cases: functional, cell-based
HeLa = experiment: Antiproliferative activity against human HeLa cells assessed as reduction in cell viability by MTT assay
HT-29 = experiment: Antiproliferative activity against human HT-29 cells assessed as reduction in cell viability by MTT assay
HCT-116 = experiment: Antiproliferative activity against human HCT-116 cells assessed as reduction in cell viability by MTT assay
MCF7 = experiment: Antiproliferative activity against human MCF7 cells assessed as reduction in cell viability by MTT assay

Compound	IC50 (HeLa) [µM]	IC50 (HT-29) [µM]	IC50 (HCT-116) [µM]	IC50 (MCF7) [µM]
CN1CCN(c2ccc(Nc3ncc(/N=C/c4ccc(C(F)(F)F)cc4)c(NC4CCCC4)n3)cc2)CC1	> 100	80.7	> 100	> 100
CC(C)Nc1nc(Nc2ccc(N3CCOCC3)cc2)ncc1/N=C/c1cccs1	> 100	25.3	14.8	> 100
CC(C)Nc1nc(Nc2ccc(S(N)(=O)=O)cc2)ncc1/N=C/c1ccccc1	> 100	98.2	> 100	> 100
NS(=O)(=O)c1ccc(Nc2ncc(/N=C/c3ccccc3)c(NC3CCCC3)n2)cc1	15.6	27	26.1	39.1
CC(C)Nc1nc(Nc2ccc(N3CCN(C)CC3)cc2)ncc1/N=C/c1ccc(C(F)(F)F)cc1	> 100	> 100	42.2	> 100
C(=N\c1cnc(Nc2ccc(N3CCOCC3)cc2)nc1NC1CCCC1)/c1ccccc1	> 100	67.6	> 100	> 100
CCOC(=O)/C=N/c1cnc(Nc2ccc(N3CCOCC3)cc2)nc1NC(C)C	27.7	19.6	23.7	15.2
CC(C)Nc1nc(Nc2ccc(S(N)(=O)=O)cc2)ncc1/N=C/c1cccs1	> 100	> 100	82.1	50.2
NS(=O)(=O)c1ccc(Nc2ncc(/N=C/c3ccc(C(F)(F)F)cc3)c(NC3CCCC3)n2)cc1	21.9	> 100	> 100	> 100
CCOC(=O)/C=N/c1cnc(Nc2ccc(N3CCN(C)CC3)cc2)nc1NC1CCCC1	18.9	15.1	17	42.3
CC(C)Nc1nc(Nc2ccc(N3CCN(C)CC3)cc2)ncc1/N=C/c1ccccc1	> 100	12.1	> 100	> 100
FC(F)(F)c1ccc(/C=N/c2cnc(Nc3ccc(N4CCOCC4)cc3)nc2NC2CCCC2)cc1	> 100	> 100	97.2	> 100
CN1CCN(c2ccc(Nc3ncc(/N=C/c4cccs4)c(NC4CCCC4)n3)cc2)CC1	25.7	21.7	18.9	33.9
